Results reported in PubChem BioAssay AID330 (DTP/NCI, 2004).
Where “and” joins values, the source holds several entries; their conditions need not be identical. Equal entries are not always repeated. Toxic doses and inconclusive results are not listed.

System: P388 leukemia ip, CD2F1 mice, survival T/C
Experiment: NCI In Vivo Anticancer Drug Screen. Data for tumor model P388 Leukemia (intraperitoneal) in CD2F1 (CDF1) mice
Settings: endpoint: median survival time, higher = longer survival
Summary of the method: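 Mice carrying the transplanted tumor received test compound or vehicle. Survival was recorded in each group, and the value is the treated-group measurement divided by that of the vehicle-treated control group.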

[1] = dose: 100.0 mg/kg/injection, schedule: Q01DX001 (ip), vehicle: saline with Tween-80
[2] = dose: 200.0 mg/kg/injection, schedule: Q01DX001 (ip), vehicle: saline with Tween-80
[3] = dose: 400.0 mg/kg/injection, schedule: Q01DX001 (ip), vehicle: saline with Tween-80
[4] = dose: 50.0 mg/kg/injection, schedule: Q01DX005 (ip), vehicle: saline with Tween-80
[5] = dose: 100.0 mg/kg/injection, schedule: Q01DX005 (ip), vehicle: saline with Tween-80
[6] = dose: 200.0 mg/kg/injection, schedule: Q01DX005 (ip), vehicle: saline with Tween-80
[7] = dose: 6.25 mg/kg/injection, schedule: Q01DX009 (ip), vehicle: saline with Tween-80
[8] = dose: 12.5 mg/kg/injection, schedule: Q01DX009 (ip), vehicle: saline with Tween-80
[9] = dose: 25.0 mg/kg/injection, schedule: Q01DX009 (ip), vehicle: saline with Tween-80
[10] = dose: 60.0 mg/kg/injection, schedule: Q01DX005 (ip), vehicle: saline with Tween-80
[11] = dose: 120.0 mg/kg/injection, schedule: Q01DX005 (ip), vehicle: saline with Tween-80
[12] = dose: 240.0 mg/kg/injection, schedule: Q01DX005 (ip), vehicle: saline with Tween-80
[13] = dose: 50.0 mg/kg/injection, schedule: Q01DX009 (ip), vehicle: saline with Tween-80
[14] = dose: 100.0 mg/kg/injection, schedule: Q01DX009 (ip), vehicle: saline with Tween-80
[15] = dose: 200.0 mg/kg/injection, schedule: Q01DX009 (ip), vehicle: saline with Tween-80
[16] = dose: 50.0 mg/kg/injection, schedule: Q01DX005 (ip), vehicle: Klucel (hydroxypropylcellulose) (HPC)
[17] = dose: 100.0 mg/kg/injection, schedule: Q01DX005 (ip), vehicle: Klucel (hydroxypropylcellulose) (HPC)
[18] = dose: 200.0 mg/kg/injection, schedule: Q01DX005 (ip), vehicle: Klucel (hydroxypropylcellulose) (HPC)
[19] = dose: 50.0 mg/kg/injection, schedule: Q01DX009 (ip), vehicle: saline

O=c1c2cc(O)ccc2oc2c(CO)ccc(NCCN3CCCC3)c12
T/C [1]: 93 % of control | T/C [2]: 100 % of control | T/C [3]: 106 % of control

c1ccc(C2=NN=C(c3ccccc3)N(c3ccccc3)N2)cc1
T/C [4]: 105 % of control | T/C [5]: 97 % of control | T/C [6]: 97 % of control

NC(N)=N/N=C1\C/C(=N\N=C(N)N)c2ccccc21
T/C [7]: 99 % of control | T/C [8]: 97 % of control | T/C (dose: 25.0 mg/kg/injection, schedule: Q01DX001 (ip), vehicle: saline with Tween-80): 107 % of control | T/C [9]: 91 % of control | T/C (dose: 50.0 mg/kg/injection, schedule: Q01DX001 (ip), vehicle: saline with Tween-80): 100 % of control

O=C(NC(Cc1ccc(O)cc1)C(=O)N=Nc1c(O)[nH]c2ccccc12)c1ccccc1 (stereo unspecified)
T/C (dose: 30.0 mg/kg/injection, schedule: Q01DX005 (ip), vehicle: saline with Tween-80): 90 % of control | T/C [10]: 87 % of control and 90 % of control | T/C [11]: 90 % of control | T/C [12]: 101 % of control

COC(=O)/C=C/c1c2ccccc2cc2ccccc12
T/C [10]: 96 % of control | T/C [11]: 96 % of control | T/C [12]: 90 % of control

OC(CCl)C(O)C(O)C(O)CCl (stereo unspecified)
T/C (dose: 100.0 mg/kg/injection, schedule: Q04DX003 (ip), vehicle: saline with Tween-80): 109 % of control | T/C (dose: 200.0 mg/kg/injection, schedule: Q04DX003 (ip), vehicle: saline with Tween-80): 100 % of control | T/C (dose: 400.0 mg/kg/injection, schedule: Q04DX003 (ip), vehicle: saline with Tween-80): 113 % of control

CCc1c[nH]c(C=O)c1CC
T/C [10]: 100 % of control | T/C [11]: 100 % of control | T/C [12]: 99 % of control

N#CC1CCCCCc2c1[nH]c1ccccc21 (stereo unspecified)
T/C [9]: 97 % of control | T/C [13]: 103 % of control | T/C [14]: 103 % of control

O=C(N=Nc1ccccc1)Nc1ccc(Br)cc1
T/C [4]: 101 % of control | T/C [5]: 101 % of control | T/C [6]: 104 % of control

NC1(C(=O)O)CCCc2ccc(N(CCCl)CCCl)cc21 (stereo unspecified)
T/C (dose: 5.0 mg/kg/injection, schedule: Q04DX003 (ip), vehicle: saline): 165 % of control | T/C [7]: 218 % of control and 197 % of control and 201 % of control | T/C (dose: 10.0 mg/kg/injection, schedule: Q04DX003 (ip), vehicle: saline): 180 % of control | T/C [8]: 272 % of control and 210 % of control and 215 % of control | T/C (dose: 12.5 mg/kg/injection, schedule: Q04DX003 (ip), vehicle: saline with Tween-80): 222 % of control | T/C [9]: 90 % of control and 102 % of control and 121 % of control | T/C (dose: 25.0 mg/kg/injection, schedule: Q04DX003 (ip), vehicle: saline with Tween-80): 272 % of control | T/C (dose: 313.0 micrograms/kg/injection, schedule: Q04DX003 (ip), vehicle: saline with Tween-80): 100 % of control | T/C (dose: 625.0 micrograms/kg/injection, schedule: Q04DX003 (ip), vehicle: saline with Tween-80): 109 % of control | T/C (dose: 1250.0 micrograms/kg/injection, schedule: Q04DX003 (ip), vehicle: saline with Tween-80): 113 % of control

CCN(CC)C(=S)Oc1cc2oc(=O)cc(C)c2cc1Cl
T/C [13]: 98 % of control | T/C [14]: 100 % of control | T/C [15]: 100 % of control

COc1ccc2c(c1)N(S(=O)(=O)c1ccc(C)cc1)C/C(=C\N1CCN(C)CC1)C2=O
T/C [16]: 97 % of control | T/C [17]: 108 % of control | T/C [18]: 101 % of control

O=C(N/N=C/c1ccccc1O)C(F)(F)F
T/C [13]: 86 % of control | T/C [14]: 86 % of control

O=c1[nH]oc2c1CCNC2
T/C (dose: 100.0 mg/kg/injection, schedule: Q04DX003 (ip), vehicle: saline): 98 % of control | T/C (dose: 200.0 mg/kg/injection, schedule: Q04DX003 (ip), vehicle: saline): 103 % of control

CN1C(=O)C2C=CC1C1C(=O)N(c3ccc([N+](=O)[O-])cc3)C(=O)C21 (stereo unspecified)
T/C (dose: 100.0 mg/kg/injection, schedule: Q04DX002 (ip), vehicle: saline with Tween-80): 103 % of control | T/C (dose: 200.0 mg/kg/injection, schedule: Q04DX002 (ip), vehicle: saline with Tween-80): 95 % of control | T/C (dose: 400.0 mg/kg/injection, schedule: Q04DX002 (ip), vehicle: saline with Tween-80): 95 % of control

O=C(Nc1ccccc1)Nc1c2c(nc3ccccc13)CCCCC2
T/C [4]: 86 % of control | T/C [5]: 89 % of control | T/C [6]: 90 % of control

Cc1ccc2occ(/C=N/NC(N)=S)c(=O)c2c1
T/C [4]: 90 % of control | T/C [5]: 97 % of control

N#Cc1sc(=S)n(-c2ccccc2)c1N
T/C (dose: 12.5 mg/kg/injection, schedule: Q01DX009 (ip), vehicle: saline): 98 % of control | T/C (dose: 25.0 mg/kg/injection, schedule: Q01DX009 (ip), vehicle: saline): 107 % of control | T/C [19]: 103 % of control and 104 % of control

CCC[C@@H]1C[C@@H](OC(=S)SC)C[C@H]2CCC(=O)N12
T/C (dose: 50.0 mg/kg/injection, schedule: Q01DX005 (ip), vehicle: Klucel + Tween-80): 102 % of control | T/C (dose: 100.0 mg/kg/injection, schedule: Q01DX005 (ip), vehicle: Klucel + Tween-80): 93 % of control | T/C (dose: 200.0 mg/kg/injection, schedule: Q01DX005 (ip), vehicle: Klucel + Tween-80): 107 % of control

COC(=O)c1cc(C)c(C)cc1NC1OC(CO)C(O)C1O (stereo unspecified)
T/C [10]: 101 % of control | T/C [11]: 95 % of control | T/C [12]: 97 % of control

O=c1nc2scc(-c3ccccc3)n2c2sc3c(c12)CCCC3
T/C [1]: 106 % of control | T/C [2]: 95 % of control | T/C [3]: 93 % of control

NCCc1ccccc1
T/C [19]: 104 % of control | T/C (dose: 100.0 mg/kg/injection, schedule: Q01DX009 (ip), vehicle: saline): 86 % of control

CCN(CC)C(=O)c1cccc(COc2ccc(N3C(N)=NC(N)=NC3(C)C)cc2Cl)c1
T/C (dose: 50.0 mg/kg/injection, schedule: Q01DX009 (ip), vehicle: saline sonified): 90 % of control | T/C (dose: 50.0 mg/kg/injection, schedule: Q04DX003 (ip), vehicle: saline sonified): 109 % of control | T/C (dose: 100.0 mg/kg/injection, schedule: Q01DX009 (ip), vehicle: saline sonified): 109 % of control | T/C (dose: 100.0 mg/kg/injection, schedule: Q04DX003 (ip), vehicle: saline sonified): 100 % of control

COCCCNC1=C(C#N)C(=O)NC(c2cccs2)S1 (stereo unspecified)
T/C [13]: 117 % of control | T/C [14]: 119 % of control

C=CCSc1cccc2ccccc12
T/C [13]: 100 % of control | T/C [14]: 109 % of control

Nc1ccc2nc3c(N)ccc(N)c3nc2c1
T/C (dose: 3.75 mg/kg/injection, schedule: Q01DX005 (ip), vehicle: saline): 100 % of control and 103 % of control | T/C (dose: 7.5 mg/kg/injection, schedule: Q01DX005 (ip), vehicle: saline): 100 % of control and 105 % of control | T/C (dose: 15.0 mg/kg/injection, schedule: Q01DX005 (ip), vehicle: saline): 100 % of control and 109 % of control | T/C (dose: 30.0 mg/kg/injection, schedule: Q01DX005 (ip), vehicle: saline): 111 % of control and 116 % of control | T/C (dose: 60.0 mg/kg/injection, schedule: Q01DX005 (ip), vehicle: saline): 116 % of control | T/C (dose: 120.0 mg/kg/injection, schedule: Q01DX005 (ip), vehicle: saline): 118 % of control

CN(O)/C=C1\C(=O)C=Cc2ccccc21
T/C [16]: 90 % of control | T/C [17]: 94 % of control | T/C [18]: 90 % of control

c1cc2cc3c(cc2cc1CC1NCCc2cc4c(cc21)OCO4)OCO3 (stereo unspecified)
T/C (dose: 12.5 mg/kg/injection, schedule: Q01DX009 (ip), vehicle: Klucel (hydroxypropylcellulose) (HPC)): 100 % of control | T/C (dose: 25.0 mg/kg/injection, schedule: Q01DX009 (ip), vehicle: Klucel (hydroxypropylcellulose) (HPC)): 91 % of control | T/C (dose: 50.0 mg/kg/injection, schedule: Q01DX009 (ip), vehicle: Klucel (hydroxypropylcellulose) (HPC)): 107 % of control | T/C (dose: 100.0 mg/kg/injection, schedule: Q01DX009 (ip), vehicle: Klucel (hydroxypropylcellulose) (HPC)): 91 % of control

COC(=S)c1cccc(C(=S)OC)c1
T/C [13]: 108 % of control | T/C [14]: 115 % of control | T/C [15]: 108 % of control
